Where two headings read alike, the source gives them in different places.
Tests used:
[1] = system: dogs with osteoarthritis (OA); experiment: multicentric, non-comparative, randomized proof of concept study, 90 days oral treatment of dogs with osteoarthritis; assay type: in vivo, dog; conditions: for Activity: Dog
Protocol: This was a multicentric, non-comparative, randomized proof of concept study in which 15 dogs with osteoarthritis (OA) were treated with piclidenosone (VBX1000) for 90 days.
[…] Two intermediate visits were included for clinical examination and for calculating OA scores.
The primary objective of this study was to assess the efficacy of piclidenosone to reduce OA symptoms severity after 90 days of treatment. For that purpose, OA symptoms and motility were scored by the owner using Liverpool Osteoarthritis in Dogs (LOAD) questionnaire at Day-0, Day-30, Day-60 and Day-90. […]
• Inclusion criteria • ∘ The owner approved and signed the informed consent form prior to the participation of his/her dog in the study; • ∘ Dog older than 18 months; • ∘ Dog with a Body Condition score lower than 8 (on a 9 point-scale); • ∘ Dog with a symptomatic unifocal or multifocal osteoarthritis, characterized by the presence of osteophyte on at least one site on radiographic views; • ∘ LOAD mobility total score of ≥ 11 at visit V2 (Day 0). • Exclusion criteria • ∘ Animals intended for breeding or known to be pregnant or lactating; • ∘ Dog with severe OA which requires concomitant treatment; • ∘ Presence of complete cranial cruciate ligament rupture; • ∘ Breeds at risk of MDR1 gene mutation (MDR1 genetic test required before screening of a dog from known affected breed: Collie, Border Collie, Australian and English Shepherd, German Shepherd, Long-Haired Whippet, Shetland Sheepdog); • ∘ History of orthopaedic surgery including complete cranial cruciate ligament rupture surgically treated with Tibial Tuberosity Advancement (TTA) or Tibial Plateau Leveling Osteotomy (TPLO) or elbow debridement within 3 months prior to inclusion; • ∘ Presence of musculoskeletal lesions (e.g., glycogenosis, primary muscular dystrophy) or untreated neoplasia prior to inclusion; • ∘ Presence of concurrent systemic disease such as neurologic, hepatic, renal or cardiac disease; • ∘ Dog under physical therapy (including acupuncture) for orthopaedic indication unless a 1-week wash-out period is applied prior to visit V1 (between D-21 and D-14); • ∘ Dog treated with methotrexate; • ∘ Dog treated with nonsteroidal anti-inflammatory drugs unless a 2-weeks wash-out period is applied prior to visit V1 (between D-21 and D-14); • ∘ Dog that received mavacoxib or enflicoxib within 3 months prior to visit V1 (between D-21 and D-14); • ∘ Dog treated with short-acting corticosteroids (i.e., hydrocortisone) unless a 2-weeks wash-out period is applied prior to visit V1 (between D-21 and D-14); • ∘ Dog treated with intermediate-acting corticosteroids (i.e., prednisone, prednisolone, methylprednisolone) unless a 4-weeks wash-out period is applied prior to visit V1 (between D-21 and D-14); • ∘ Dog treated with long-acting corticosteroids (i.e., dexamethasone) unless a 12-weeks wash-out period is applied prior to visit V1 (between D-21 and D-14); • ∘ Dog treated with any intra-articular injection in the joint under study within 2 months prior to visit V1 (between D-21 and D-14); • ∘ Dog treated with a subcutaneous injection of bedinvetmab unless a 4-week wash-out periods is applied prior to visit V1 (between D-21 and D-14); • ∘ Dog treated with OA modifying diet and/or food supplements (i.e., glycosaminoglycans, glucosamine and chondroitin sulphate or other) unless its administration has been regular during the month preceding visit V1 (between D-21 and D-14) and will be continued during the study duration; • ∘ Dog unable to walk on a leash. […]

human patients = conditions: cited from earlier work; for Activity: Human
[2] = system: monoidoacetate (MIA) experimental rat models; conditions: cited from earlier work
[3] = system: dogs with osteoarthritis (OA); experiment: multicentric, non-comparative, randomized proof of concept study, 90 days oral treatment of dogs with osteoarthritis; assay type: in vivo, dog
[4] = system: patients with osteoarthritis of the knee; conditions: 1000 µg (14.5 µg/kg) twice daily orally for 12 weeks; trial discontinued; cited from earlier work
[5] = 100 µg/kg bid, 90 days vs baseline
[6] = oral, 100 µg/kg body weight twice a day

Question: Which “pain score (Visual Analog Score or VAS)” value ([1]; 100 µg/kg bid group, 90-day treatment period) does the source give for `CNC(=O)[C@H]1O[C@@H](n2cnc3c(NCc4cccc(I)c4)ncnc32)[C@H](O)[C@@H]1O` [piclidenoson, 1-Deoxy-1-[6-[[(3-iodophenyl)methyl]amino]-9H-purin-9-yl]-N-methyl-β-D-ribofuranuronamide] here?
Answer: not significantly improved

Question: And the “proportion of patient with low NRS1 (lameness score)” value [1, 5]?
Answer: non-significant increase

Question: What about the “evidence for efficacy in the treatment of osteoarthritis in dogs” value ([1]; 100 µg/kg twice a day orally for 90 days) of the same compound?
Answer: do not provide evidence for efficacy

Question: What about the “proportion of patient experiencing clinically meaningful improvement of LOAD score” value ([1]; 500 µg/kg bid group as compared to 100 µg/kg bid, decrease in LOAD score ≥4, Day-90 vs inclusion) of the same compound?
Answer: higher

Question: What about the “pain score (Visual Analog Score or VAS)” value ([1]; 500 µg/kg bid group, statistical significance from Day-60 up to end of treatment) of the same compound?
Answer: significant decrease

Question: And the “change in LOAD score vs that obtained after ligament surgery in dogs with ligament rupture” value ([1]; 500 µg/kg bid, after 90 days)?
Answer: comparable

Question: What about the Activity ([1]; Bid Dose 100 µg/kg) of the same compound?
Answer: No

Question: What about the Activity ([1]; Bid Dose 500 µg/kg) of the same compound?
Answer: Yes

Question: And the “proportion of patients showing VAS improvement (Δ≤-1)” value ([1]; end of treatment period, 500 µg/kg bid group as compared to 100 µg/kg bid group)?
Answer: superior

Question: What about the “temporal evolution of mean LOAD score” value ([1]; group 1, 100 µg/kg bid, observed at Day-30, totally disappeared at Day-60 and Day-90) of the same compound?
Answer: transient decrease

Question: And the “temporal evolution of mean LOAD score” value ([1]; group 2, 500 µg/kg bid, statistical significance from Day-60 to end of treatment)?
Answer: time-dependent decrease

Question: What about the “Active Dose in dog” value ([1]; proof-of-concept trial in dog with osteoarthritis, bid) of the same compound?
Answer: 0.5 mg/kg

Question: What about the “clinical symptoms of osteoarthritis in dog” value ([1]; repeated oral administration at dose ≥ 500 µg/kg bid) of the same compound?
Answer: improves clinical symptoms

Question: And the tolerance ([1]; throughout the study, 100 and 500 µg/kg bid for 90 days)?
Answer: well tolerated with no treatment related SAE and no death

Question: And the Activity (human patients; Bid Dose 2000 µg (29 µg/kg))?
Answer: Yes

Question: What about the Activity (human patients; Bid Dose 4000 µg (57 µg/kg)) of the same compound?
Answer: Yes

Question: What about the “Active Dose in Human” value (human patients; from clinical Phase 2 trials, assuming body weight of 70 kg) of the same compound?
Answer: 0.029 mg/kg

Question: What about the Activity ([2]; Rat, Bid Dose 100 µg/kg) of the same compound?
Answer: Yes

Question: And the NF-kappaB signaling pathway [2, 6]?
Answer: deregulated

Question: And the “apoptosis of inflammatory cells” value [2, 6]?
Answer: induced apoptosis

Question: What about the cartilage protection [2, 6] of the same compound?
Answer: cartilage protective agent

Question: And the “proportion of patient with low NRS2 (pain score)” value [3, 5]?
Answer: non-significant increase

Question: And the LOAD score ([3]; 500 µg/kg bid oral, Day-90, N=9, baseline 22.9±7.2 at Day-0, p<0.01, primary endpoint met)?
Answer: 14.9±10.6

Question: And the “proportion of patients with low scores, NRS2 (pain score)” value ([3]; 500 µg/kg bid, 90 days vs baseline, p<0.05 Fisher exact test)?
Answer: reached statistical significance

Question: What about the “proportion of patients with low scores, NRS1 (lameness score)” value ([3]; 500 µg/kg bid, 90 days vs baseline, statistical significance) of the same compound?
Answer: not for NRS1

Question: What about the efficacy [4] of the same compound?
Answer: lack of efficacy
